Experimental findings from patent publication US12448400B2, “KRAS G12D modulating compounds” (priority 2023, dated 2025) are described below.

The nature of data set [1]: Mouse oral cassette pharmacokinetics. It counts as in vivo, male CD-1 mice. Here is the method: Mouse Oral Cassette Pharmacokinetics
Test compounds (1-3 compounds per cassette) were formulated in solution formulations (10 w/v % Captisol in 50 mM Citrate buffer) and administered orally at 30 mg-eq./kg each compound to a group of four male CD-1 mice. The test articles were administrated by oral gavage at a dose volume of 10 mL-eq/kg.
Blood samples were collected at 0.5, 1, 3, 6, 8, and 24 hours post dose into K2EDTA tubes and stored on wet ice until processed. Whole blood was processed to plasma by centrifugation (3500 rpm for 10 minutes at 5° C.) within 30 minutes of collection. Plasma samples were placed in Micronic 96 well tubes and stored at −80° C. until transferred. Plasma concentration of the test compounds was determined by LC-MS/MS. Pharmacokinetic parameters were estimated using non-compartment model analysis. The maximum observed concentration (Cmax) and area under the curve from time of dosing to last measured concentration (AUClast) were calculated and reported.

A further data set has as its system GP2D (KRAS G12D) cells. The data set can be described thus: 2D cell viability assay (CellTiter-Glo). Type of data set: cell-based. The following applies: GP2D cells, 4 days, CellTiter-Glo luminescence, read-out: G12D 2D EC50. The method, boiled down:
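Viability was read by CellTiter-Glo after 4 days at 37 °C of 2D culture of KRAS G12D GP2D cells (1000/well, RPMI, 10% FBS) on pre-spotted threefold compound dilutions. EC50 was fitted with a sigmoidal dose-response model as the point of half-maximal luminescence loss.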

For a further data set, the target named is GDP-loaded KRAS G12D (Homo sapiens, UniProt P01116, G12D). In words: KRAS G12D (GDP) biochemical assay, TR-FRET probe displacement. Type of data set: binding. The following applies: 0.5 nM enzyme, 30 min pre-incubation, 2 h incubation, TR-FRET ratio; read-out: G12D IC50. How it is done: Example A. KRAS G12D (GDP) Biochemical Assay
Compounds were tested for binding to GDP-loaded KRAS G12D in a 384-well assay format using a TR-FRET probe displacement assay in buffer consisting of 50 mM Hepes (pH 7.4), 150 mM NaCl, 5 mM MgCl2 and 0.005% Tween-20. […] Compounds were serially diluted (1:3) in DMSO. The LabCyte ECHO Acoustic dispenser system was used to pre-spot the assay plates (384-well Non-Binding Surface plates, Corning, Catalog #3824) with 50 nL of compound. The compounds were pre-incubated with 5 μL of 2× final enzyme concentration for 30 minutes before adding 5 μL of 2× final concentration of Eu-streptavidin and TR-FRET probe (10 μL final reaction volume). The plates were incubated at room temperature for 2 hours before measuring TR-FRET ratio on the Envision plate reader. IC50 values were defined as the compound concentration that causes a 50% decrease in TR-FRET ratio and were calculated using a sigmoidal dose-response model to generate curve fits.

[2] abbreviates: male, CD-1, mouse, in vivo, po, 30 mg/kg.

Where two headings read alike, the source gives them in different places.

On to “4-(((1S,4R,11R,14aR)-11-(8-ethynyl-7-fluoro-3-hydroxynaphthalen-1-yl)-10,12-difluoro-8-(((2R,7aS)-2-fluorotetrahydro-1H-pyrrolizin-7a(5H)-yl)methoxy)-1,2,3,4,5,13,14,14a-octahydro-1,4-epiminoazepino[1′,2′:1,71azepino[2,3,4-de]quinazolin-15-yl)methyl)-5-methyl-1,3-dioxol-2-one [Example 37]”, for which the “Mouse Parent AUC” value in data set [1] (oral gavage, 30 mg-eq./kg each compound, cassette, plasma, AUClast of parent) was found to be 0.13 µM·h. For the same compound, in the data set on GP2D (KRAS G12D) cells, the EC50 came to 0.23 nM. Besides, the IC50 on GDP-loaded KRAS G12D was 1 nM.
Consider `Cc1cc(N)nc(-c2c(Cl)c3c4c(nc(OC[C@@]56CCCN5C[C@H](F)C6)nc4c2F)N2C[C@H]4CC[C@@H]([C@H]2CC3)N4Cc2oc(=O)oc2C)c1C(F)(F)F` (atropisomer, axis not shown; (aR)) [Example 3, 4-(((1R,4S,14aR)-11-((R)-6-amino-4-methyl-3-(trifluoromethyl)pyridin-2-yl)-12-chloro-10-fluoro-8-(((2R,7aS)-2-fluorotetrahydro-1H-pyrrolizin-7a(5H)-yl)methoxy)-1,2,3,4,5,13,14,14a-octahydro-1,4-epiminoazepino[1′,2′:1,7]azepino[2,3,4-de]quinazolin-15-yl)methyl)-5-methyl-1,3-dioxol-2-one], for which the “Mouse Parent AUC” value in data set [1] (setting [2]) was found to be 5.7 µM·h. Also, the EC50 with GP2D (KRAS G12D) cells (96 h) stood at 0.92 nM. Further, the IC50 at GDP-loaded KRAS G12D was found to be 4.7 nM.
On the same counts, the results for `C#Cc1c(F)ccc2cccc(-c3nc4c5c(nc(OC[C@@]67CCCN6C[C@H](F)C7)nc5c3F)N3C[C@H]5CC[C@@H]([C@H]3CCC4)N5Cc3oc(=O)oc3C)c12` [Example 1, 4-(((6aR,7S,10R)-2-(8-ethynyl-7-fluoronaphthalen-1-yl)-1-fluoro-13-(((2R,7aS)-2-fluorotetrahydro-1H-pyrrolizin-7a(5H)-yl)methoxy)-5,6,6a,7,8,9,10,11-octahydro-4H-3,11a,12,14,15-pentaaza-7,10-methanocyclohepta[4,5]cycloocta[1,2,3-de]naphthalen-15-yl)methyl)-5-methyl-1,3-dioxol-2-one] are 3.6 µM·h, 5.8 nM and 2.5 nM.
The like results for `C#Cc1c(F)ccc2cc(O)cc(-c3nc4c5c(nc(OC[C@@]67CCCN6C[C@H](F)C7)nc5c3F)N3C[C@H]5CC[C@@H]([C@H]3CCC4)N5Cc3oc(=O)oc3C)c12` [Example 8, 4-(((6aR,7S,10R)-2-(8-ethynyl-7-fluoro-3-hydroxynaphthalen-1-yl)-1-fluoro-13-(((2R,7aS)-2-fluorotetrahydro-1H-pyrrolizin-7a(5H)-yl)methoxy)-5,6,6a,7,8,9,10,11-octahydro-4H-3,11a,12,14,15-pentaaza-7,10-methanocyclohepta[4,5]cycloocta[1,2,3-de]naphthalen-15-yl)methyl)-5-methyl-1,3-dioxol-2-one] were, in that order, 1.1 µM·h, 0.49 nM and 4.8 nM.
On to `C#Cc1c(F)ccc2cc(O)cc(-c3nc4c5c(nc(OC[C@@]67CCCN6C[C@H](F)C7)nc5c3F)N3C[C@H]5CC[C@@H]([C@H]3CCC4)N5Cc3oc(=O)oc3C(C)(C)C)c12` [Example 9, 4-(tert-butyl)-5-(((6aR,7S,10R)-2-(8-ethynyl-7-fluoro-3-hydroxynaphthalen-1-yl)-1-fluoro-13-(((2R,7aS)-2-fluorotetrahydro-1H-pyrrolizin-7a(5H)-yl)methoxy)-5,6,6a,7,8,9,10,11-octahydro-4H-3,11a,12,14,15-pentaaza-7,10-methanocyclohepta[4,5]cycloocta[1,2,3-de]naphthalen-15-yl)methyl)-1,3-dioxol-2-one], for which the “Mouse Parent AUC” value in data set [1] (setting [2]) turned out to be 0.16 µM·h. In addition, the EC50 in the data set on GP2D (KRAS G12D) cells (96 h) is 1.9 nM. In addition, the IC50 at GDP-loaded KRAS G12D worked out at 12 nM.
The like results for `C#Cc1c(F)ccc2cc(O)cc(-c3nc4c5c(nc(OC[C@@]67CCCN6C[C@H](F)C7)nc5c3F)N3C[C@H]5CC[C@@H]([C@H]3CCC4)N5Cc3oc(=O)oc3CCCCCCCC)c12` [Example 10, 4-(((6aR,7S,10R)-2-(8-ethynyl-7-fluoro-3-hydroxynaphthalen-1-yl)-1-fluoro-13-(((2R,7aS)-2-fluorotetrahydro-1H-pyrrolizin-7a(5H)-yl)methoxy)-5,6,6a,7,8,9,10,11-octahydro-4H-3,11a,12,14,15-pentaaza-7,10-methanocyclohepta[4,5]cycloocta[1,2,3-de]naphthalen-15-yl)methyl)-5-octyl-1,3-dioxol-2-one] were, in that order, 0.44 µM·h, 0.16 nM and 7.8 nM.
As for `C#Cc1c(F)ccc2cc(O)cc(-c3nc4c5c(nc(OC[C@@]67CCCN6C[C@H](F)C7)nc5c3F)N3C[C@H]5CC[C@@H]([C@H]3CC[C@H]4C)N5Cc3oc(=O)oc3C)c12` [Example 11, 4-(((4R,6aR,7S,10R)-2-(8-ethynyl-7-fluoro-3-hydroxynaphthalen-1-yl)-1-fluoro-13-(((2R,7aS)-2-fluorotetrahydro-1H-pyrrolizin-7a(5H)-yl)methoxy)-4-methyl-5,6,6a,7,8,9,10,11-octahydro-4H-3,11a,12,14,15-pentaaza-7,10-methanocyclohepta[4,5]cycloocta[1,2,3-de]naphthalen-15-yl)methyl)-5-methyl-1,3-dioxol-2-one], the “Mouse Parent AUC” value in data set [1] (setting [2]) came out at 0.96 µM·h. Besides, in the data set with GP2D (KRAS G12D) cells (96 h), the EC50 was 0.12 nM. On GDP-loaded KRAS G12D, the IC50 is 4.4 nM.
On the same counts, the results for `C#Cc1c(F)ccc2cc(O)cc(-c3nc4c5c(nc(OC[C@@]67CCCN6C[C@H](F)C7)nc5c3F)N3C[C@H]5CC[C@H](N5)[C@H]3CC[C@H]4C)c12` [Example 11-P, 5-ethynyl-6-fluoro-4-((4R,6aR,7S,10R)-1-fluoro-13-(((2R,7aS)-2-fluorotetrahydro-1H-pyrrolizin-7a(5H)-yl)methoxy)-4-methyl-5,6,6a,7,8,9,10,11-octahydro-4H-3,11a,12,14,15-pentaaza-7,10-methanocyclohepta[4,5]cycloocta[1,2,3-de]naphthalen-2-yl)naphthalen-2-ol] are 0.14 µM·h, 0.09 nM and 0.09 nM.
On the same counts, the results for `C#Cc1c(F)ccc2cc(O)cc(-c3nc4c5c(nc(OC[C@@]67CCCN6C[C@H](F)C7)nc5c3F)N3C[C@H]5CC[C@@H]([C@H]3CC[C@H]4C)N5Cc3oc(=O)oc3C(C)(C)C)c12` [Example 12, 4-(tert-butyl)-5-(((4R,6aR,7S,10R)-2-(8-ethynyl-7-fluoro-3-hydroxynaphthalen-1-yl)-1-fluoro-13-(((2R,7aS)-2-fluorotetrahydro-1H-pyrrolizin-7a(5H)-yl)methoxy)-4-methyl-5,6,6a,7,8,9,10,11-octahydro-4H-3,11a,12,14,15-pentaaza-7,10-methanocyclohepta[4,5]cycloocta[1,2,3-de]naphthalen-15-yl)methyl)-1,3-dioxol-2-one] are 0.2 µM·h, 0.28 nM and 73 nM.
